Reference: patent US9938284B2, “Organic compounds” (INTRA-CELLULAR THERAPIES, INC., priority 2014, dated 2018)

Experiment: Pharmacokinetic analysis in mice, plasma and brain levels by LC-MS/MS
Type: in vivo
Conditions: male C57 BL/6 mice, 10 mg/kg oral (PO)
Experimental: Pharmacokinetic Analysis of the Compounds of the Invention
Animals: Male, C57 BL/6 mice (Jackson Labs, 25-30 g in body weight) are provided by Jackson Laboratories. Up to five mice are housed per cage and are maintained under a 12 hour light/dark cycle with access to food and water ad libitum. All procedures for the handling and use of animals follow the guidelines of the Institutional Animal Care and Use Committee (IACUC) of Columbia University, in accordance with NIH guidelines. Eight week-old mice (N=3/dose level or treatment group) are used in the experiments.
Experimental Treatment: Compounds: Selected Compounds of the Invention are evaluated in the present study. […]
Compound Preparation: Powdered stocks of the test compound(s) are measured and dissolved in 3% 1N HCl, 5% Labrasol and 92% of 5% TPGS in 0.05M Citrate buffer (CB, pH 4.0). […]
Treatment of Animals: Mice (N=3 mice/dose/time point) receive a 10 mg/kg oral (PO) dose of the test compound(s) at time 0. […] Plasma and brain tissue samples are processed and analyzed by the analytical group using LC-MS/MS methods, as described below. […]
Each tube is vortexed, then centrifuged for 20 min at 15000 rpm using a Tomy benchtop centrifuge at 4° C. Standard is an internal standard used for LC-MS/MS quantitation. […]
RESULTS: Plasma and Brain Analysis: All the test compound(s) tested could be detected and analyzed when spiked into control plasma. […]

Cc1nnc2n(C)c(=O)c3c(Nc4ccccc4)n(Cc4ccc(-c5cccc(F)n5)cc4)nc3n12 [Example 2, 2-(4-(6-Fluoro-pyridin-2-yl)-benzyl)-5,8-dimethyl-3-phenylamino-2H,5H-pyrazolo[4,3-e][1,2,4]triazolo[4,3-a]pyrimidin-4-one]
Kp (C57BL/6, mouse, brain/plasma, 0.25-2 h, read-out: B/P ratio (Brain AUC(0-2h)/Plasma AUC(0-2h))): ≤ 0.15
oral bioavailability: display oral bioavailability
